{"source": "patent US10836732B2", "about": "“Compounds for combating arthropods” (priority 2013, dated 2020)", "key": {"Boophilus microplus": {"test_system": "Boophilus microplus", "test": "Boophilus microplus - injection test (BBOMI Inj)", "assay_type": "in vivo", "conditions": "4 μg/animal, injected into engorged adult female cattle ticks, after 7 days", "experimental": "(§1) Solvent: dimethyl sulphoxide\nTo produce an appropriate active ingredient formulation, 10 mg of active ingredient are mixed with 0.5 ml of solvent and the concentrate is diluted with solvent to the desired concentration.\n1 μl of the active ingredient solution is injected into the abdomen of 5 engorged adult female cattle ticks (Boophilus microplus). The animals are transferred into dishes and kept in a climate-controlled room.\nEfficacy is assessed after 7 days by laying of fertile eggs. Eggs which are not visibly fertile are stored in a climate-controlled cabinet until the larvae hatch after about 42 days. An efficacy of 100% means that none of the ticks has laid any fertile eggs; 0% means that all the eggs are fertile."}, "Ctenocephalides felis": {"test_system": "Ctenocephalides felis", "test": "Ctenocephalides felis - oral test", "assay_type": "in vivo", "conditions": "100 ppm in citrated cattle blood, adult cat fleas, after 2 days", "experimental": "as §1\nFor the purpose of producing an appropriate active ingredient formulation, 10 mg of active ingredient are mixed with 0.5 ml of dimethyl sulphoxide. Dilution with citrated cattle blood gives the desired concentration.\nAbout 20 unfed adult cat fleas (Ctenocephalides felis) are placed into a chamber which is closed at the top and bottom with gauze. A metal cylinder whose bottom end is closed with parafilm is placed onto the chamber. The cylinder contains the blood/active ingredient preparation, which can be imbibed by the fleas through the parafilm membrane.\nAfter 2 days, the kill in % is determined 100% means that all of the fleas have been killed; 0% means that none of the fleas have been killed."}}}
{"smiles": "Cc1cc(C(F)(C(F)(F)F)C(F)(F)F)cc(C)c1-c1cn(-c2ccc(Cl)c(C(=O)NC3CC3)c2)nn1", "note": "[I-T48-1, 2-chloro-N-cyclopropyl-5-[4-[2,6-dimethyl-4-[1,2,2,2-tetrafluoro-1-(trifluoromethyl)ethyl]phenyl]triazol-1-yl]benzamide]", "values": [{"measurement": "efficacy (no fertile eggs laid)", "setting": "Boophilus microplus", "result": 100, "unit": "%"}, {"measurement": "efficacy (kill in %)", "setting": "Ctenocephalides felis", "result": 100, "unit": "%"}]}
